Measurements published in patent US7452997B2 (priority 2004, dated 2008).
Like-named read-outs stand apart in the source and are kept apart here.

Legend:
[1] = target: human CB2 receptor (Homo sapiens, UniProt P34972); test: Binding assay, cannabinoid CB2 receptor ([3H]-CP-55,940 displacement); conditions: SK-N-MC cell membranes, radioligand CP-55,940 0.2 nM
Protocol: (§1) Binding Assay for CB1 or CB2 Agonists or Inverse Agonists
(§2) The human CB1 and CB2 receptors were stably expressed in SK-N-MC cells transfected with pcDNA3 CB-1 (human) or pcDNA3 CB-2 (human). The cells were grown in T-180 cell culture flasks under standard cell culture conditions at 37° C. in a 5% CO2 atmosphere. The cells were harvested by trysinization and homogenized in a homogenization buffer (10 mM Tris, 0.2 mM MgCl2, 5 mM KCl, with protease inhibitors aprotinin, leupeptin, pepstatin A and bacitracin) and centrifuged (2000 g). The supernatant was then centrifuged in 2M sucrose (31,300 g) to produce a semi-purified membrane pellet. The pellet was resuspended in homogenization and store at −80° C.
(§3) On the day of the assay, the pellet was thawed on ice and diluted in assay buffer (50 mM Tris-HCl, 5 mM MgCl2, 2.5 mM EDTA, 0.5 mg/mL fatty acid free bovine serum albumin, pH 7.5). The diluted membrane was added with buffer, test compound or standard and the radioligand [H]^3+-CP-55,940_(0.2 nM) to the wells of a 96-well polypropylene plate. Non-specific binding was measured in wells containing 10 uM WIN 55,212. The plate was covered and incubated for 90 minutes at 30° C. The contents were then aspirated onto a Packard UNIFILTER GF/C filter bottom plate prewet with 0.5% polyethyleneimine. The wells of the polypropylene plate were rinsed and aspirated seven times with a 0.9% saline-0.5% TWEEN 20 solution. The UNIFILTER plate was dried, a scintillation cocktail was added to each well and the counts representing binding were quantitated in a TOPCOUNT scintillation counter.
(§4) The IC50 binding values for compounds tested were calculated by linear regression and were obtained from studies in which varying compound concentrations were used.

[2] = target: T1, human CB1 receptor (Homo sapiens, UniProt P21554); test: biochemical; type: binding
T1 construct: expressed in transfected cells; host or cells: SK-N-MC cells, stably transfected with pcDNA3 CB-1 (human); semi-purified membrane pellet
Protocol: as §1, §2
as §3, with “The diluted membrane was added with buffer, test compound or standard and the radioligand [H]^3+-CP-55,940_(0.2 nM) to the wells of a 96-well polypropylene plate. Non-specific binding was measured in wells containing 10 uM WIN 55,212.” left out, “UNIFILTER” left out
as §4

[3] = Cannabinoid CB2 Receptor Binding IC50, human CB2 receptor
[4] = human CB1 receptor, SK-N-MC cell membranes, radioligand CP-55,940 0.2 nM, read-out: Cannabinoid CB1 Receptor Binding IC50

Sequence of human CB2 receptor (P34972 whole entry): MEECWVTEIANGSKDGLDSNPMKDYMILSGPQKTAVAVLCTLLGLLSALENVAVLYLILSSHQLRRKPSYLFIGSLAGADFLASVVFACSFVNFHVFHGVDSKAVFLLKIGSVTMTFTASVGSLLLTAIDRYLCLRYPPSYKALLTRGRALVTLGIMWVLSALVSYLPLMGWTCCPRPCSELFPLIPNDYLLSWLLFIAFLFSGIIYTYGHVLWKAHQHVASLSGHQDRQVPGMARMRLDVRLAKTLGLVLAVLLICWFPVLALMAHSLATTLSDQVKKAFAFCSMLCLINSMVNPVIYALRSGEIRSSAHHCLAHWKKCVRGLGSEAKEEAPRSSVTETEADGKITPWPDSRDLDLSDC
T1 sequence (P21554 whole entry): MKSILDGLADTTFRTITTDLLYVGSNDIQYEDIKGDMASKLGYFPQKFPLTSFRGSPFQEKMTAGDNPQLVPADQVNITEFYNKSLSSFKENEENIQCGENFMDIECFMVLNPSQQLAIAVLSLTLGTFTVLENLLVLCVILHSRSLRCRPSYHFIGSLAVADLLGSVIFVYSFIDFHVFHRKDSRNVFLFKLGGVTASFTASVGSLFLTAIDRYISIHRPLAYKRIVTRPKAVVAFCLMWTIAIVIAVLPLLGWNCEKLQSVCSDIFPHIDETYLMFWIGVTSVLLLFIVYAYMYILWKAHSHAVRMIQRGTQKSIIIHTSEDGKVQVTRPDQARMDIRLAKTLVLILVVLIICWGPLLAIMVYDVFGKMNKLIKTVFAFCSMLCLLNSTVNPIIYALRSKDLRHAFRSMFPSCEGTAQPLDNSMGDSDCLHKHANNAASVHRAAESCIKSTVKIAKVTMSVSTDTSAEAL

SMILES	IC50 [1, 3] [nM]	IC50 [2] [nM]	IC50 [2, 4] [nM]	IC50 ([1]; human CB2 receptor, read-out: Cannabinoid CB2 Receptor Binding IC50) [nM]
O=C(NN1CCCCC1)c1nn(-c2ccc(Cl)cc2Cl)c2c1CCCC2 [compound 287]	2100	2500		
CC(c1ccccc1)n1nc(C(=O)NC2C3(C)CCC(C3)C2(C)C)c2c1CCCC2 (stereo not drawn) [compound 250]	5.6	70		
C[C@H]1C(NC(=O)c2nn(C3CCCCC3)c3c2CCCC3)C[C@@H]2C[C@H]1C2(C)C (stereo partly drawn) [compound 252]	48	40		
CCOC(=O)C1CC=CCC1NC(=O)c1nn(C2CCCCC2)c2c1CCCC2OC (stereo not drawn) [compound 120]	875	2460		
CCOC(=O)[C@H]1CCC[C@H]1NC(=O)c1nn(C2CCCCC2)c2c1CCCC2 [compound 58]	170	736		
CCOC(=O)C1CCc2c(c(C(=O)N[C@H](C)C3CCCCC3)nn2Cc2ccccc2)C1 (stereo partly drawn) [compound 289]	400	880		
O=C(NC12CC3CC(CC(C3)C1)C2)c1c2c(nn1-c1ccc(Cl)cc1Cl)CCCC2 [compound 140]	3400	890		
CC1(C)C2CCC1(C)C(NC(=O)c1nn(C3CCCCC3)c3c1CCCC3)C2 (stereo not drawn) [compound 25]	1.6	75.3		
O=C(NC1CCCCCCC1)c1nn(Cc2ccccc2)c2c1CCCC2 [compound 127]	3.9	9.9		
CC12CCC(C1)C(C)(C)C2NC(=O)c1nn(Cc2ccccc2)c2c1CCCC2c1ccccc1 (stereo not drawn) [compound 265]	41	96		
CC(C)N(C(=O)c1nn(C2CCCCC2)c2c1CCCC2)[C@H](C)C1CCCCC1 [compound 329]	20	1700		
CC1(C)C2CCC1(C)C(NC(=O)c1nn(-c3ccc(F)cc3)c3c1CCCC3)C2 (stereo not drawn) [compound 21]	11	44		
COC(=O)C(Cc1ccc(O)c(O)c1)NC(=O)c1nn(Cc2ccccc2)c2c1CCCC2 (stereo not drawn) [compound 82]	200	700		
CC12CCC(C1)C(C)(C)[C@H]2NC(=O)c1nn(-c2ccc(F)cc2)c2c1CCCC2 (stereo partly drawn) [compound 202]	4.5	115		
CC12CCC(C1)C(C)(C)C2NC(=O)c1nn(Cc2ccccc2)c2c1CCCC2 (stereo not drawn) [Cpd 194, 1-benzyl-4,5,6,7-tetrahydro-1H-indazole-3-carboxylic acid (1,3,3-trimethyl-bicyclo[2.2.1]hept-2-yl)-amide]	0.2	0.1		
COC(=O)NC1CCc2c(c(C(=O)NC3C4CC5CC(C4)CC3C5)nn2C2CCCCC2)C1 (stereo not drawn) [compound 88]	87	2400		
O=C(NCC(O)C1CCCCC1)c1nn(C2CCCCC2)c2c1CCCC2 (stereo not drawn) [compound 185]	120	900		
CC(NC(=O)c1nn(C2CCCCC2)c2c1CCCC2)[C@H]1CC[C@H](C)CC1 (stereo partly drawn) [compound 248]	20		160	
O=C(NC1C2CC3CC(C2)CC1C3)c1nn(Cc2ccccc2)c2c1CCCC2 (stereo not drawn) [compound 136]	0.5	0.8		
CC(NC(=O)Nc1nn(C2CCCCC2)c2c1CCCC2)C1CCCCC1 (stereo not drawn) [compound 334]	980	12500		
CC12CCC(C1)C(C)(C)C2NC(=O)c1nn(-c2ccc(F)cc2)c2c1CCCC2C1CCCCC1 (stereo not drawn) [compound 24]	6820	3810		
CC12CCC(C1)C(C)(C)C2NC(=O)c1nn(C2CCCCC2)c2c1CC(N)CC2 (stereo not drawn) [Cpd 92, 5-amino-1-cyclohexyl-4,5,6,7-tetrahydro-1H-indazole-3-carboxylic acid (1,3,3-trimethyl-bicyclo[2.2.1]hept-2-yl)-amide]	90	1600		
CCOC(=O)C1CCCc2c1c(C(=O)NC(C)C13CC4CC(CC(C4)C1)C3)nn2C1CCCCC1 (stereo not drawn) [compound 72]	4100	8400		
CCOC(=O)C1CCc2c(C(=O)NC3C4CC5CC(C4)CC3C5)nn(C3CCCCC3)c2C1 (stereo not drawn) [compound 68]	57	463		

SMILES	IC50 [1, 3] [nM]	IC50 [2] [nM]	IC50 [2, 4] [nM]	IC50 ([1]; human CB2 receptor, read-out: Cannabinoid CB2 Receptor Binding IC50) [nM]
CCOC(=O)[C@@H]1CCCC[C@H]1NC(=O)c1nn(Cc2ccccc2)c2c1CCCC2 [compound 272]	70	86		
CC12CCC(C1)C(C)(C)C2NC(=O)CCc1nn(C2CCCCC2)c2c1CCCC2 (stereo not drawn) [Cpd 50, 3-(1-cyclohexyl-4,5,6,7-tetrahydro-1H-indazol-3-yl)-N-(1,3,3-trimethyl-bicyclo[2.2.1]hept-2-yl)-propionamide]	13	255		
COC(=O)C(Cc1c[nH]c2ccccc12)NC(=O)c1nn(Cc2ccccc2)c2c1CCCC2 (stereo not drawn) [compound 83]	20	38		
CCOC(=O)C1CCc2nn(C3CCCCC3)c(C(=O)NC3C4CC5CC(C4)CC3C5)c2C1 (stereo not drawn) [compound 221]	460	3290		
CCOC(=O)[C@@H]1C2C=CC(C2)[C@@H]1NC(=O)c1c2c(nn1Cc1ccccc1)CCCC2 (stereo partly drawn) [compound 277]	3300	1300		
CC(NC(=O)c1nn(C2CCCCC2)c2c1CCCC2)C1CCCC1 (stereo not drawn) [compound 193]	5	120		
COC(=O)C(Cc1ccc(O)cc1)NC(=O)c1nn(-c2ccc(OC)cc2)c2c1CCCC2 (stereo not drawn) [compound 5]	291	6800		
O=C(NC12CC3CC(CC(C3)C1)C2)c1nn(-c2ccc(Cl)cc2Cl)c2c1CCCC2 [compound 139]	300	160		
CC(C)(Cc1nn(C2CCCCC2)c2c1CCCC2)C(=O)NC1C2CC3CC(C2)CC1C3 (stereo not drawn) [Cpd 66, N-adamantan-2-yl-3-(1-cyclohexyl-4,5,6,7-tetrahydro-1H-indazol-3-yl)-2,2-dimethyl-propionamide]	1400	3590		
COC(=O)C(Cc1ccc(O)cc1)NC(=O)c1c2c(nn1-c1ccc(OC)cc1)CCCC2 (stereo not drawn) [compound 6]	367	6750		
O=C(CCc1nn(C2CCCCC2)c2c1CCCC2)N[C@@H]1CCCC[C@H]1CO [compound 51]	8420	15200		
CCOC(=O)[C@H]1CCc2c(c(C(=O)NC3C4CC5CC(C4)CC3C5)nn2Cc2ccccc2)C1 (stereo partly drawn) [compound 210]	8	335		
CC12CCC(C1)C(C)(C)C2NC(=O)c1nn(-c2ccc(Cl)cc2)c2c1CCCC2 (stereo not drawn) [compound 12]	21.4	148		
O=C(NCC12CC3CC(CC(C3)C1)C2)c1nn(-c2ccc(F)cc2)c2c1CCCC2c1ccccc1 (stereo not drawn) [compound 145]	1100	950		
CCOC(=O)C1CCCc2c1c(C(=O)NC1C3CC4CC(C3)CC1C4)nn2Cc1ccccc1 (stereo not drawn) [compound 158]	9	13		
COc1ccccc1CCNC(=O)c1nn(Cc2ccccc2)c2c1CCCC2 [compound 237]	151	890		
COC1CCCc2c(C(=O)NC3C4CC5CC(C4)CC3C5)nn(C3CCCCC3)c21 (stereo not drawn) [compound 162]			635	110
CC(NC(=O)c1nn(Cc2ccccc2)c2c1CCCC2)C12CC3CC(CC(C3)C1)C2 (stereo not drawn) [compound 39]	6	9		
O=C(NCC1CCCCC1)c1nn(C2CCCCC2)c2c1CCCC2 [Cpd 304, 1-cyclohexyl-4,5,6,7-tetrahydro-1H-indazole-3-carboxylic acid cyclohexylmethylamide]	20	160		
C[C@H](NC(=O)c1nn(Cc2ccccc2)c2c1CCCC2)C1CCCCC1 [compound 201]	2	1.7		
CCOC(=O)[C@@H]1C2CCC(C2)[C@@H]1NC(=O)c1c2c(nn1Cc1ccccc1)CCCC2 (stereo partly drawn) [compound 273]	414	1590		
CC(NC(=O)c1nn(-c2ccc(F)cc2)c2c1CCCC2)C1C2CC3CC(C2)CC1C3 (stereo not drawn) [compound 22]	143	1030		
CCOC(=O)C1CCc2c(C(=O)NC(C)C34CC5CC(CC(C5)C3)C4)nn(C3CCCCC3)c2C1 (stereo not drawn) [compound 69]	2.7	220		
CCOC[C@H]1C2CCC(C2)[C@H]1NC(=O)c1nn(C2CCCCC2)c2c1CCCC2 (stereo partly drawn) [compound 107]	1400	910		
